Reference: publication PMC4396556, “1,2,3,4,6-Penta-O-galloylglucose within Galla Chinensis Inhibits Human LDH-A and Attenuates Cell Proliferation in MDA-MB-231 Breast Cancer Cells” (Evidence-based Complementary and Alternative Medicine : eCAM, 2015)
pIC50: −log10 of the molar value.

How the values were obtained:
human LDH-A (hLDH-A) [1] = biological target: T1, human LDH-A (hLDH-A) (Homo sapiens, UniProt P00338); test: recombinant enzyme assay, NADH oxidation at […] nm; velocity at varied NADH ±[…] PGG; assay type: biochemical
T1 construct: gene LDHA; recombinant full length human LDHA (amino acids 1–332) with N terminal His tag

human LDH-A (hLDH-A) [2] = biological target: T1, human LDH-A (hLDH-A); test: recombinant enzyme assay, NADH oxidation at […] nm; assay type: biochemical

Row | pIC50 (human LDH-A (hLDH-A) [1]) | pIC50 (human LDH-A (hLDH-A) [2]) | Structure (SMILES)
1 | 7.57 |  | O=C(OC[C@H]1O[C@@H](OC(=O)c2cc(O)c(O)c(O)c2)[C@H](OC(=O)c2cc(O)c(O)c(O)c2)[C@@H](OC(=O)c2cc(O)c(O)c(O)c2)[C@@H]1OC(=O)c1cc(O)c(O)c(O)c1)c1cc(O)c(O)c(O)c1 [PGG, penta-1,2,3,4,6-O-galloyl-β-D-glucose]
2 |  | < 2.22 | O=C(O)C(=O)O [oxalic acid]
